Results reported in PubChem BioAssay (NCI).
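Test compounds were applied to cells in 96-well plates for 48 hours at 5 doses. TGI denotes the concentration required for complete inhibition of growth.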

Experiments:
Test in all cases: NCI tumour cell line growth inhibition, 48 h
786-0 renal = system: 786-0 renal
A498 renal = system: A498 renal
A549 NSCLC = system: A549 NSCLC
ACHN renal = system: ACHN renal
CAKI-1 renal = system: CAKI-1 renal
CCRF-CEM leukemia = system: CCRF-CEM leukemia
COLO 205 colon = system: COLO 205 colon
DLD-1 colon = system: DLD-1 colon
DMS 114 small cell lung = system: DMS 114 small cell lung
DMS 273 small cell lung = system: DMS 273 small cell lung
EKVX NSCLC = system: EKVX NSCLC
HCC-2998 colon = system: HCC-2998 colon
HCT-116 colon = system: HCT-116 colon
HCT-15 colon = system: HCT-15 colon
HL-60(TB) leukemia = system: HL-60(TB) leukemia
HOP-62 NSCLC = system: HOP-62 NSCLC
HT29 colon = system: HT29 colon
K-562 leukemia = system: K-562 leukemia
KM12 colon = system: KM12 colon
KM20L2 colon = system: KM20L2 colon
LOX IMVI melanoma = system: LOX IMVI melanoma
LXFL 529 NSCLC = system: LXFL 529 NSCLC
M14 melanoma = system: M14 melanoma
M19-MEL melanoma = system: M19-MEL melanoma
MALME-3M melanoma = system: MALME-3M melanoma
MOLT-4 leukemia = system: MOLT-4 leukemia
NCI-H226 lung = system: NCI-H226 lung
NCI-H23 lung = system: NCI-H23 lung
NCI-H460 lung = system: NCI-H460 lung
NCI-H522 lung = system: NCI-H522 lung
OVCAR-3 ovarian = system: OVCAR-3 ovarian
OVCAR-4 ovarian = system: OVCAR-4 ovarian
OVCAR-5 ovarian = system: OVCAR-5 ovarian
OVCAR-8 ovarian = system: OVCAR-8 ovarian
RXF 393 renal = system: RXF 393 renal
SF-268 CNS = system: SF-268 CNS
SF-295 CNS = system: SF-295 CNS
SF-539 CNS = system: SF-539 CNS
SK-MEL-28 melanoma = system: SK-MEL-28 melanoma
SK-MEL-5 melanoma = system: SK-MEL-5 melanoma
SK-OV-3 ovarian = system: SK-OV-3 ovarian
SN12C renal = system: SN12C renal
SNB-19 CNS = system: SNB-19 CNS
SNB-75 CNS = system: SNB-75 CNS
SNB-78 CNS = system: SNB-78 CNS
SR leukemia = system: SR leukemia
TK-10 renal = system: TK-10 renal
U251 CNS = system: U251 CNS
UACC-257 melanoma = system: UACC-257 melanoma
UACC-62 melanoma = system: UACC-62 melanoma
UO-31 renal = system: UO-31 renal
XF 498 CNS = system: XF 498 CNS
HOP-18 NSCLC = system: HOP-18 NSCLC
HOP-92 NSCLC = system: HOP-92 NSCLC
IGROV1 ovarian = system: IGROV1 ovarian
RPMI-8226 leukemia = system: RPMI-8226 leukemia
SK-MEL-2 melanoma = system: SK-MEL-2 melanoma
SW-620 colon = system: SW-620 colon

SMILES: Cn1cc/c(=N\N=c2/ccn(C)c3ccccc23)c2ccccc21
- TGI (786-0 renal): 30.1 µM
- TGI (A498 renal): 37.2 µM
- TGI (A549 NSCLC): 30.6 µM
- TGI (ACHN renal): 27 µM
- TGI (CAKI-1 renal): 33.2 µM
- TGI (CCRF-CEM leukemia): 24.5 µM
- TGI (COLO 205 colon): 22.1 µM
- TGI (DLD-1 colon): 29.4 µM
- TGI (DMS 114 small cell lung): 27.7 µM
- TGI (DMS 273 small cell lung): 30 µM
- TGI (EKVX NSCLC): 27.8 µM
- TGI (HCC-2998 colon): 29.2 µM
- TGI (HCT-116 colon): 23.4 µM
- TGI (HCT-15 colon): 29.2 µM
- TGI (HL-60(TB) leukemia): 21.6 µM
- TGI (HOP-62 NSCLC): 31.6 µM
- TGI (HT29 colon): 31.7 µM
- TGI (K-562 leukemia): 22.2 µM
- TGI (KM12 colon): 25.6 µM
- TGI (KM20L2 colon): 28.2 µM
- TGI (LOX IMVI melanoma): 24.2 µM
- TGI (LXFL 529 NSCLC): 27.2 µM
- TGI (M14 melanoma): 30.8 µM
- TGI (M19-MEL melanoma): 34.2 µM
- TGI (MALME-3M melanoma): 31 µM
- TGI (MOLT-4 leukemia): 63.9 µM
- TGI (NCI-H226 lung): 25.8 µM
- TGI (NCI-H23 lung): 27.4 µM
- TGI (NCI-H460 lung): 25 µM
- TGI (NCI-H522 lung): 27.8 µM
- TGI (OVCAR-3 ovarian): 24 µM
- TGI (OVCAR-4 ovarian): 25.5 µM
- TGI (OVCAR-5 ovarian): 30.3 µM
- TGI (OVCAR-8 ovarian): 28.5 µM
- TGI (RXF 393 renal): 27.5 µM
- TGI (SF-268 CNS): 39.2 µM
- TGI (SF-295 CNS): 30.9 µM
- TGI (SF-539 CNS): 29.4 µM
- TGI (SK-MEL-28 melanoma): 28.5 µM
- TGI (SK-MEL-5 melanoma): 29.4 µM
- TGI (SK-OV-3 ovarian): 31 µM
- TGI (SN12C renal): 33 µM
- TGI (SNB-19 CNS): 36.3 µM
- TGI (SNB-75 CNS): 61.8 µM
- TGI (SNB-78 CNS): 33.3 µM
- TGI (SR leukemia): 47.3 µM
- TGI (TK-10 renal): 36.4 µM
- TGI (U251 CNS): 29.1 µM
- TGI (UACC-257 melanoma): 27.3 µM
- TGI (UACC-62 melanoma): 29.8 µM
- TGI (UO-31 renal): 26.3 µM
- TGI (XF 498 CNS): 27.1 µM

SMILES: O=C(Nc1c(O)[nH]c(=S)[nH]c1=O)c1ccco1
- TGI (786-0 renal): > 100 µM
- TGI (A498 renal): > 100 µM
- TGI (A549 NSCLC): > 100 µM
- TGI (ACHN renal): > 100 µM
- TGI (CAKI-1 renal): > 100 µM
- TGI (CCRF-CEM leukemia): > 100 µM
- TGI (COLO 205 colon): > 100 µM
- TGI (DMS 114 small cell lung): > 100 µM
- TGI (HCT-116 colon): > 100 µM
- TGI (HCT-15 colon): > 100 µM
- TGI (HL-60(TB) leukemia): > 100 µM
- TGI (HOP-18 NSCLC): > 100 µM
- TGI (HOP-62 NSCLC): > 100 µM
- TGI (HOP-92 NSCLC): > 100 µM
- TGI (HT29 colon): > 100 µM
- TGI (IGROV1 ovarian): > 100 µM
- TGI (K-562 leukemia): > 100 µM
- TGI (KM12 colon): > 100 µM
- TGI (KM20L2 colon): > 100 µM
- TGI (LOX IMVI melanoma): > 100 µM
- TGI (LXFL 529 NSCLC): > 100 µM
- TGI (M14 melanoma): > 100 µM
- TGI (M19-MEL melanoma): > 100 µM
- TGI (MALME-3M melanoma): > 100 µM
- TGI (MOLT-4 leukemia): > 100 µM
- TGI (NCI-H226 lung): > 100 µM
- TGI (NCI-H23 lung): > 100 µM
- TGI (NCI-H460 lung): > 100 µM
- TGI (NCI-H522 lung): > 100 µM
- TGI (OVCAR-3 ovarian): > 100 µM
- TGI (OVCAR-4 ovarian): > 100 µM
- TGI (OVCAR-5 ovarian): > 100 µM
- TGI (OVCAR-8 ovarian): > 100 µM
- TGI (RPMI-8226 leukemia): > 100 µM
- TGI (SF-268 CNS): > 100 µM
- TGI (SF-295 CNS): > 100 µM
- TGI (SF-539 CNS): > 100 µM
- TGI (SK-MEL-2 melanoma): > 100 µM
- TGI (SK-MEL-28 melanoma): > 100 µM
- TGI (SK-MEL-5 melanoma): > 100 µM
- TGI (SK-OV-3 ovarian): > 100 µM
- TGI (SN12C renal): > 100 µM
- TGI (SNB-19 CNS): > 100 µM
- TGI (SNB-75 CNS): > 100 µM
- TGI (SNB-78 CNS): > 100 µM
- TGI (SR leukemia): > 100 µM
- TGI (SW-620 colon): > 100 µM
- TGI (TK-10 renal): > 100 µM
- TGI (U251 CNS): > 100 µM
- TGI (UACC-257 melanoma): > 100 µM
- TGI (UACC-62 melanoma): > 100 µM
- TGI (UO-31 renal): > 100 µM
